These results are taken from PMC6151435, “Bioactivity In Vitro of Quercetin Glycoside Obtained in Beauveria bassiana Culture and Its Interaction with Liposome Membranes” (Molecules : A Journal of Synthetic Chemistry and Natural …, 2017).

For assay [1], the target named is T1, COX-2 (Homo sapiens, UniProt P35354).
T1 construct: purchased Sigma-Aldrich
T1 sequence (P35354 18-604): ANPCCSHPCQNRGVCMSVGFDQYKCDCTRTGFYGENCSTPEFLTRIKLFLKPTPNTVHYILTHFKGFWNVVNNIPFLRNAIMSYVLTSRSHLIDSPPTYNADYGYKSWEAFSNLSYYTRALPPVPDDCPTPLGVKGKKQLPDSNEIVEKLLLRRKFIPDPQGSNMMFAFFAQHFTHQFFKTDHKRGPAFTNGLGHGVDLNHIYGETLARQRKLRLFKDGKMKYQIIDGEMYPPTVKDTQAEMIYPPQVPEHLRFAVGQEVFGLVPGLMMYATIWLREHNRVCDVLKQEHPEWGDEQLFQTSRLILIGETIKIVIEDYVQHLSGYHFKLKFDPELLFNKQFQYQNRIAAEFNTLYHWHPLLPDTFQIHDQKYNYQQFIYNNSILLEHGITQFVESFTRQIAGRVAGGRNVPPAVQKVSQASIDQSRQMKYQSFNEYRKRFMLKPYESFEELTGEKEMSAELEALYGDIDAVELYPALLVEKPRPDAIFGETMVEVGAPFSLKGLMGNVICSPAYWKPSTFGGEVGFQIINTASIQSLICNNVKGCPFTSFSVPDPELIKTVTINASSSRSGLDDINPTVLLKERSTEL
The assay can be described thus: Inhibition of cyclooxygenase 2 (spectrophotometric, TMPD). In kind it is biochemical. The source says:
The probes 1,6-diphenyl-1,3,5-hexatriene (DPH), 3-[p-(6-phenyl)-1,3,5-hexatrienyl]propionic acid (DPH-PA), Merocyanine 540 (MC540), and N,N,N-trimethyl-4-(6-phenyl-1,3,5-hexatrien-1-yl)phenylammonium p-toluenesulfonate (TMA-DPH) were purchased from Molecular Probes (Eugene, OR, USA). Tris (hydroxymethyl) aminomethane (Tris:HCl) were obtained from “Chempur” (Piekary Śląskie, Poland). Quercetin (Q) was purchased from Sigma-Aldrich.
This experiment, established on the basis of a modified method given in the work by Jang and Pezzuto [68], was conducted by a spectrophotometric measurement of inhibition of the cyclooxygenases’ activity COX-1 and COX-2. […] To initiate the reaction, arachidonic acid was added at a concentration of 35 mM. The final volume of the sample was 1 mL. […] The measurements were carried out at room temperature. The control sample contained the right amount of solvent (methanol) instead of the studied compounds. […] The experiment was performed in five replicates (n = 5).

For assay [2], the system named is T2, human serum albumin (HSA).
T2 construct: purchased Sigma-Aldrich
The assay can be described thus: Binding to human serum albumin (fluorescence quenching). The settings on record: for Ksv (Stern–Volmer quenching constant): pH 7.4. The source says:
Fluorescence quenching induced by studied molecules is described using the well-known Stern-Volmer equation [53]:(1) F0/F=1+Kqτ0[Qu]=1+KSV[Qu] where: F0 and F are HSA fluorescence intensities before and after adding quencher, respectively, Kq is a bimolecular quenching constant, τ0 is life time of the fluorophore in the absence of quencher (the fluorescence life time of a biopolymer is about 5 × 10^−9 s, [Qu] is the quencher concentration, and KSV is the Stern–Volmer quenching constant (KSV = Kq × τ0). The plot of F0/F against [Qu] at 310 K is shown in Figure 3A,B. The Stern–Volmer plots are evidently linear in the 1–16 μM range of concentration for studied compounds.
The value of the binding constant Ka is crucial for understanding the distribution of the drug in plasma. A strong binding produces a decrease in plasma concentrations, […] the distribution and the pharmacological effect of the compound [55]. The apparent binding constant (Kb) and number of binding sites (n) can be calculated using the following equation:(2) log(F0−F/F)=logKb+nlog[Qu]
The interaction forces between a drug and a biomacromolecule may include hydrophobic forces, electrostatic interactions, van der Waals interactions, hydrogen bonds, etc. The thermodynamic parameters of binding reaction are the main evidence for confirming a binding force. In order to elucidate the binding mode, the binding constant for flavonoid–HSA complex formation was evaluated at four different temperatures. The thermodynamic parameters of the binding process can be calculated using the Van’t Hoff equation [60]:(3) lnKb=−ΔH/RT+ΔS/R
The enthalpy change ∆H is calculated on the basis of the slope of lnKb vs. […] plot. The free-energy change ΔG is estimated on the basis of the following equation:(4) ΔG=ΔH−TΔS=−RTlnKb where: ΔH ΔG and ΔS are enthalpy, free enthalpy and entropy change, respectively. R is the gas constant 8.314 J·mol^−1·K^−1.
Analysis of Q 7-MeGlu and Q interaction with human serum albumin (HSA) was performed according to the procedure described by Strugała et al.. The fluorescence measurements were performed on a Cary Eclipse fluorimeter equipped with 1.0 cm quartz cells and a thermostat bath. All quenching experiments were performed at 300, 305, 310 and 315 K for HSA in a phosphate buffer solution of pH 7.4 and final concentration 1.5 × 10^−5 M. The excitation wavelength was set at 280 nm (excitation of the Trp and Tyr), and the emission spectra were read at 285–460 nm. The excitation and emission slits were both set to 5 nm. Our method consisted in tracking the quenching of natural HSA fluorescence caused by Q 7-MeGlu and Q (of final concentrations 1, 2, 4, 6, 8, 10, 12, 14 and 16 µM) added successively. The stock solutions of Q 7-MeGlu and Q were prepared by dissolving in methanol. Control sample contained appropriate amount of methanol. […] The experiment was performed in three independent replicates (n = 3).

The IC50 is the concentration at which inhibition is half-maximal.

Where two headings read alike, the source gives them in different places.

`CO[C@H]1[C@H](O)[C@@H](O)[C@H](Oc2cc(O)c3c(=O)c(O)c(-c4ccc(O)c(O)c4)oc3c2)O[C@@H]1CO` [Q 7-MeGlu, quercetin 7-O-β-D-(4″-O-methyl)glucopyranoside]: the IC50 in assay [1] (Tris-HCl pH 8.0, room temperature, read-out: IC50 COX-2) came to 49.2 ± 5.55 µM. Besides, the “KSV compared with KSV for Q” value in assay [2] is “approximately four times lower”. Also, the “Ksv (Stern–Volmer quenching constant)” value is recorded as 3.837 ± 0.192 * ·10^4 M^−1 in assay [2] (T 300 K), 3.545 ± 0.025 * ·10^4 M^−1 in assay [2] (T 305 K), 3.412 ± 0.045 * ·10^4 M^−1 in assay [2] (T 310 K) and 3.182 ± 0.013 * ·10^4 M^−1 in assay [2] (T 315 K).

As to `O=c1c(O)c(-c2ccc(O)c(O)c2)oc2cc(O)cc(O)c12` [Quercetin, 3,3′,4′,5,7-pentahydroxyflavone], the IC50 in assay [1] was determined as 17 ± 2.43 µM. In addition, the “Ksv (Stern–Volmer quenching constant)” value in assay [2] (T 300 K) is 17.510 ± 0.152 * ·10^4 M^−1; in assay [2] (T 305 K), 16.719 ± 0.135 * ·10^4 M^−1; in assay [2] (T 310 K), 15.632 ± 0.109 * ·10^4 M^−1; in assay [2] (T 315 K), 13.718 ± 0.058 * ·10^4 M^−1.
